Results published in ChEMBL document CHEMBL3596090, “Discovery of novel pyrazole-containing benzamides as potent RORγ inverse agonists” (Bioorg Med Chem Lett, 2015).
≈ marks a conversion by molar mass, not a printed value.

What was measured:
[1] = biological target: T1, Nuclear receptor ROR-gamma (Homo sapiens, UniProt P51449); experiment: Binding affinity to GST-tagged RORgamma LBD (unknown origin) assessed as inhibition of interaction with co-activatior peptide TRAP220 preincubated for 1 hr followed by TRAP220 addition by FRET analysis
T1 sequence (P51449 whole entry): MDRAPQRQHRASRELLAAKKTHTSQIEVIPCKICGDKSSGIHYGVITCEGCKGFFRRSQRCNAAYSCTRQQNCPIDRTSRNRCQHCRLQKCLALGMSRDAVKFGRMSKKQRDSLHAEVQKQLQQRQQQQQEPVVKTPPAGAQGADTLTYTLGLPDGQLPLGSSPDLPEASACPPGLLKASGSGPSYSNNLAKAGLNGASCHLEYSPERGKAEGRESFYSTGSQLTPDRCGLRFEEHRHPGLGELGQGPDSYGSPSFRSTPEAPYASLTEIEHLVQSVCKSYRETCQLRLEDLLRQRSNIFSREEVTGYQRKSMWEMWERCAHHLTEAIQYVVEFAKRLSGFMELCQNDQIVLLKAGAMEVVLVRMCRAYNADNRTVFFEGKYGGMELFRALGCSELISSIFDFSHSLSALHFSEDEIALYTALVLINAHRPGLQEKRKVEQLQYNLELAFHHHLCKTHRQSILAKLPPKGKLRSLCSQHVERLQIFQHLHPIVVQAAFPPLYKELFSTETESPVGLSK

[2] = biological target: T1, Nuclear receptor ROR-gamma; experiment: Inverse agonist activity at RORgamma (unknown origin) transfected in HEK293T cells after 16 to 20 hrs by GAL4 luciferase reporter gene assay; type: functional, cell-based, HEK-293T
[3] = biological target: T2, Nuclear receptor ROR-gamma (Mus musculus, UniProt P51450); experiment: Inverse agonist activity at RORgamma in C57BL/6 mouse splenocytes assessed as reduction of IL-17 production after 2 days by ELISA; type: cell-based
T2 sequence (P51450 whole entry): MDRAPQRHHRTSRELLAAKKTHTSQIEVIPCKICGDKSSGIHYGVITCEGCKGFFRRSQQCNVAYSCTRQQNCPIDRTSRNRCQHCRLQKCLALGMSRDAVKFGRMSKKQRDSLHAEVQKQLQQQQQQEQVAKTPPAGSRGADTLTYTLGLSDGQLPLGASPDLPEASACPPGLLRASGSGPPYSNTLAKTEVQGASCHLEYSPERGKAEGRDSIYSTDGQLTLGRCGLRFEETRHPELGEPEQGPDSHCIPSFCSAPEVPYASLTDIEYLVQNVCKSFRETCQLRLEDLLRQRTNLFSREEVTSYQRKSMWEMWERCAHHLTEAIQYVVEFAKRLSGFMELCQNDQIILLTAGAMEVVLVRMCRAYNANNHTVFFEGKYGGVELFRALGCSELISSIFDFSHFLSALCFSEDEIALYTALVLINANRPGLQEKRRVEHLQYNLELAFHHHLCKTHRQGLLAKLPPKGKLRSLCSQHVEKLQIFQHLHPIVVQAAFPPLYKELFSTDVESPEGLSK

[4] = Kinetic aqueous solubility of the compound; type: physicochemical; conditions: buffer; read-out: Kinetic_solubility
[5] = Percentage unbound in human plasma; type: ADME, cell-free
[6] = Percentage unbound in rat plasma; type: ADME, cell-free
[7] = AUC in po dosed rat; type: ADME, organism-based; conditions: in vivo
[8] = biological target: T3, Nuclear receptor ROR-alpha (Homo sapiens, UniProt P35398); experiment: Inverse agonist activity at RORalpha (unknown origin)
T3 sequence (P35398 whole entry): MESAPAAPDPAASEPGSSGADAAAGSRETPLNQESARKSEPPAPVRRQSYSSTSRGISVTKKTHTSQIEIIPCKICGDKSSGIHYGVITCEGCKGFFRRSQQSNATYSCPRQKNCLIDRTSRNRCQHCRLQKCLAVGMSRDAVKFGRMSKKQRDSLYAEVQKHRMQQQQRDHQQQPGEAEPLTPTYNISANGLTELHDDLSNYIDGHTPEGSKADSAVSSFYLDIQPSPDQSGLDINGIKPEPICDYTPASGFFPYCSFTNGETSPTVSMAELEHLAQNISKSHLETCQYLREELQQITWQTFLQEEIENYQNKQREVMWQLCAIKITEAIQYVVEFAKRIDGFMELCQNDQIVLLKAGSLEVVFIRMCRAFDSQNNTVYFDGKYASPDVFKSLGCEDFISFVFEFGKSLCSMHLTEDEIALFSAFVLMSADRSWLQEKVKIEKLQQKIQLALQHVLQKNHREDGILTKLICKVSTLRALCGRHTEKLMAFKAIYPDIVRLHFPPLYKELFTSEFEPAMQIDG

[9] = biological target: T4, Nuclear receptor ROR-beta (Homo sapiens, UniProt Q92753); experiment: Inverse agonist activity at RORbeta (unknown origin)
T4 sequence (Q92753 whole entry): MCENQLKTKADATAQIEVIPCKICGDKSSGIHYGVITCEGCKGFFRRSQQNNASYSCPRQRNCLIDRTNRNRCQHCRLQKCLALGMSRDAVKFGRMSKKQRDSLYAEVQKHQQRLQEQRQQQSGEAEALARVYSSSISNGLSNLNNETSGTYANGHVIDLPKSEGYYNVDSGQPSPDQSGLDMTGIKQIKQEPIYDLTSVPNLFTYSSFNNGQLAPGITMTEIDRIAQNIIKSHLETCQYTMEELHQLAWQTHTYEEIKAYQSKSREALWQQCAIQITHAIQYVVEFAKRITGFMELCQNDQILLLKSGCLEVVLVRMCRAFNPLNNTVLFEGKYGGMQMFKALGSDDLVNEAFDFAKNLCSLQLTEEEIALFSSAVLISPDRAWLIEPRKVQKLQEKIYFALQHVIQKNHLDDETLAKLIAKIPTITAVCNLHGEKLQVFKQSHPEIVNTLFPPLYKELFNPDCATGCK

[10] = biological target: T5, Nuclear receptor subfamily 1 group I member 2 (Homo sapiens, UniProt O75469); experiment: Activation of PXR (unknown origin)
T5 sequence (O75469 whole entry): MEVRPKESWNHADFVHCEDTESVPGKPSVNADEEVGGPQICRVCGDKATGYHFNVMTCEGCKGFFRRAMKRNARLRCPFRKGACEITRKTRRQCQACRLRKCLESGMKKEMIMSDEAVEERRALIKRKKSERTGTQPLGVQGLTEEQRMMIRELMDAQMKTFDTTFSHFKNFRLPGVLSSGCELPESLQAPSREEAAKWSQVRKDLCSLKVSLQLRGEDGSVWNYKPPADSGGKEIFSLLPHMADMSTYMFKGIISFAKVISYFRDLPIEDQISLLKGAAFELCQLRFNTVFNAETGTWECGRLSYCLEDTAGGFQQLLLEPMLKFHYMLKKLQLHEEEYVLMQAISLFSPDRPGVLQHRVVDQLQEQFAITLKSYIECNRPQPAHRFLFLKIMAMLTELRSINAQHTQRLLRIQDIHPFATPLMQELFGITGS

[11] = AUC (0 to 7 hrs) in rat at 10 mg/kg, po; type: ADME, organism-based; parameters: time < 7 hr, dose 10 mg/kg, route oral; conditions: in vivo
[12] = AUC in mouse at 25 mg/kg, po; type: ADME, organism-based; conditions: in vivo

| Compound | IC50 [1] | EC50 [2] | EC50 [3] | solubility kinetic [4] | fraction unbound [5] | fraction unbound [6] | AUC [7] | EC50 [8] | EC50 [9] | EC50 [10] | AUC(0-t) at 7 h [11] | AUC [12] |
| --- | --- | --- | --- | --- | --- | --- | --- | --- | --- | --- | --- | --- |
| [2H]C([2H])([2H])N(C(=O)c1c(F)cccc1Cl)c1ccc(-c2cc(C(N)=O)ccc2Cl)cc1OCC(F)(F)F | 29 nM | 98 nM | 895 nM | 0.3 µg/mL (≈ 0.579 µM) | 0.003 | 0.002 | 3130 ng·h/mL | – | – | – | – | – |
| [2H]C([2H])([2H])N(C(=O)c1c(F)cccc1Cl)c1ccc(-c2cc(NC(C)=O)nn2C(C)C)cc1OCC1CCC1 | – | – | 3110 nM | – | – | – | – | 1200 nM | 900 nM | > 10000 nM | – | – |
| [2H]C([2H])([2H])N(C(=O)c1c(F)cccc1Cl)c1ccc(-c2cc(NC(C)=O)nn2C(C)C)cc1N1CC2CC2C1 (configuration not stated) | – | – | 38 nM | 2.1 µg/mL (≈ 4.09 µM) | 0.014 | 0.002 | – | 1600 nM | 1300 nM | 9900 nM | 1040 ng·h/mL | 2830 ng·h/mL |
| [2H]C([2H])([2H])N(C(=O)c1c(F)cccc1Cl)c1ccc(-c2cc(NC(C)=O)nn2C(C)C)cc1N1CCCC1 | – | – | – | 12 µg/mL (≈ 24 µM) | 0.017 | 0.009 | – | 1400 nM | 1000 nM | 800 nM | – | – |
| [2H]C([2H])([2H])N(C(=O)c1c(F)cccc1Cl)c1ccc(-c2cc(NC(C)=O)nn2C(C)C)cc1N1CCCCC1 | – | – | 11 nM | 1.3 µg/mL (≈ 2.52 µM) | 0.004 | 0.001 | – | 1100 nM | 800 nM | > 10000 nM | – | – |
| [2H]C([2H])([2H])N(C(=O)c1c(F)cccc1Cl)c1ccc(-c2cc(NC(C)=O)nn2C(C)C)cc1-c1ccccc1 | – | – | – | – | 0.004 | 0.004 | – | 2100 nM | 1100 nM | > 10000 nM | – | – |
| CC(=O)Nc1cc(-c2ccc(N(C)C(=O)c3c(F)cccc3Cl)c(N3CC4CC4C3)c2)n(C(C)C)n1 (configuration not stated) | – | – | 110 nM | – | 0.009 | 0.002 | – | 1900 nM | 1700 nM | – | – | – |
| [2H]C([2H])([2H])N(C(=O)c1c(Cl)cccc1Cl)c1ccc(-c2cc(NC(C)=O)nn2C(C)C)cc1N1CC2CC2C1 (configuration not stated) | – | – | 73 nM | 0.8 µg/mL (≈ 1.51 µM) | 0.004 | 0.001 | – | 1500 nM | 600 nM | 500 nM | – | – |
| [2H]C([2H])([2H])N(C(=O)c1c(C)cccc1F)c1ccc(-c2cc(NC(C)=O)nn2C(C)C)cc1N1CC2CC2C1 (configuration not stated) | – | – | 355 nM | 17 µg/mL (≈ 34.5 µM) | 0.011 | 0.002 | – | 2000 nM | 1500 nM | > 10000 nM | – | – |
| [2H]C([2H])([2H])N(C(=O)c1c(F)cccc1Cl)c1ncc(-c2cc(NC(C)=O)nn2C(C)C)cc1N1CC2CC2C1 (configuration not stated) | – | – | – | 48 µg/mL (≈ 93.4 µM) | 0.056 | 0.022 | – | > 10000 nM | 6200 nM | 1300 nM | – | – |
| [2H]C([2H])([2H])N(C(=O)c1c(F)cccc1Cl)c1ccc(-c2cc(NC(=O)C(C)C)nn2C(C)C)cc1N1CC2CC2C1 (configuration not stated) | – | 15 nM | 128 nM | – | – | – | – | – | – | – | – | – |
| [2H]C([2H])([2H])N(C(=O)c1c(F)cccc1Cl)c1ccc(-c2cc(NC(=O)NC(CO)CO)nn2C(C)C)cc1N1CC2CC2C1 (configuration not stated) | – | 71 nM | – | – | – | – | – | – | – | – | – | – |
| [2H]C([2H])([2H])N(C(=O)c1c(F)cccc1Cl)c1ccc(-c2cc(NC(=O)OC3(C)CC3)nn2C(C)C)cc1N1CC2CC2C1 (configuration not stated) | – | 150 nM | – | – | – | – | – | – | – | – | – | – |
| [2H]C([2H])([2H])N(C(=O)c1c(F)cccc1Cl)c1ccc(-c2cc(NC(C)=O)nn2C2CCCC2)cc1N1CC2CC2C1 (configuration not stated) | – | – | 60 nM | 0.1 µg/mL (≈ 0.186 µM) | 0.002 | < 0.0005 | – | 1300 nM | 1300 nM | 500 nM | – | – |
| [2H]C([2H])([2H])N(C(=O)c1c(F)cccc1Cl)c1ccc(-c2cc(NC(C)=O)nn2CC2CC2)cc1N1CC2CC2C1 (configuration not stated) | – | – | 201 nM | 10.1 µg/mL (≈ 19.2 µM) | 0.005 | 0.002 | – | 1800 nM | 1800 nM | 8800 nM | – | – |
| [2H]C([2H])([2H])N(C(=O)c1c(F)cccc1Cl)c1ccc(-c2cc(NC(C)=O)nn2C(C)C2CC2)cc1N1CC2CC2C1 (configuration not stated) | – | – | – | 0.5 µg/mL (≈ 0.928 µM) | – | – | – | 9300 nM | 1300 nM | 900 nM | – | – |
| CC(=O)Nc1cc(-c2cnc(N(C)C(=O)c3c(F)cccc3Cl)c(N3CCCCC3)c2)n(C(C)C)n1 | – | – | 34 nM | 37.4 µg/mL (≈ 72.9 µM) | 0.076 | 0.013 | – | 9300 nM | 2300 nM | 5400 nM | 927 ng·h/mL | 2260 ng·h/mL |
| CC(=O)Nc1nc(C(C)C)c(-c2cnc(N(C)C(=O)c3c(F)cccc3Cl)c(N3CCCCC3)c2)s1 | – | – | – | 0.3 µg/mL (≈ 0.566 µM) | 0.003 | 0.002 | – | 2200 nM | 800 nM | 400 nM | – | – |
| CC(=O)Nc1nc(-c2cnc(N(C)C(=O)c3c(F)cccc3Cl)c(N3CCCCC3)c2)n(C(C)C)n1 | > 5000 nM | > 1000 nM | – | – | – | – | – | – | – | – | – | – |
